From US12059422B2 (MEI Pharma, Inc., priority 2011, dated 2024)

What was measured:
PI3Kα = PI3Kα (Homo sapiens, UniProt P42336); assay: ELISA assay for PI3Kα: in-cell ELISA, phosphorylation of AKT (Thr308) in MDA-MB-453 cells; type: cell-based; conditions: cellular, pAKT (Thr308), IGF-1 stimulation, read-out: IC50 p110α
Protocol: PI3K alpha (PI3Kα) activity was determined by measuring the phosphorylation of AKT (Thr308) using an in-cell ELISA assay. MDA-MB-453 (breast carcinoma) cells were obtained from ATCC (ATCC #HTB-131). Growth medium was DMEM (CellGro #CV-10-013-CV) supplemented with 10% fetal bovine serum, 100 IU/mL penicillin, 100 μg/mL streptomycin, and 1×MEM non-essential amino acids. Phosphate buffered saline (PBS) contained 2.7 M NaCl, 54 mM KCl, 86 mM […] (dibasic, anhydrous), and 28 mM […] (monobasic, anhydrous) at pH 7.2. Stimulation mixture (10×) was 1000 ng/mL LONG® R^3 human IGF-1 (Sigma #I1271) diluted in serum-free DMEM medium (CellGro #CV-10-013-CV). Compounds for testing were dissolved and serially diluted in 100% DMSO (total of 10 concentrations), then diluted in serum-free DMEM to 2× final assay concentration. Fixative solution (2×) was 8% formaldehyde (Amresco #M134) diluted in PBS. Permeabilization solution was PBS supplemented with 0.1% Triton X-100. Blocking buffer was obtained from LiCor (LiCor #927-40000). Wash buffer was PBS supplemented with 0.1% Tween-20. Primary antibody solution was rabbit anti-pAKT^T308 monoclonal antibody (Cell Signaling #2965) and mouse anti-total S6 (Santa Cruz #74459) diluted 1:500 and 1:2000, respectively, in the blocking buffer. Secondary antibody solution was IRDye 800CW-conjugated goat anti-rabbit IgG (LiCor #926-32211) and IRDye 680LT-conjugated goat anti-mouse IgG (LiCor #926-68020) diluted 1:1000 and 1:2000, respectively, in the blocking buffer.
MDA-MB-453 cells were subcultured in growth medium and seeded into flat, clear bottom, 96-well plates (Corning #3904) at 40000 cells/well, then incubated overnight in a 5% CO2 incubator at 37° C. Growth medium in plates was replaced with 100 μL/well serum-free DMEM and incubated overnight at 37° C. in a 5% CO2 incubator. Fresh serum-free DMEM (50 μL/well) was added to plates. Compound treatment was performed by adding 50 μL/well of 2× compound mixture to plates and incubating for 1 hr at 37° C. and 5% CO2, after which 11 μL/well of 10× stimulation mixture was added and plates were incubated for 10 min at 37° C. and 5% CO2. Fixation was performed by adding 110 μL/well of 2× fixative solution to the plates and incubating for 20 min at room temperature. Permeabilization was performed by replacing fixation solution with 150 μL/well permeabilization solution and incubating for 10 min at room temperature. Permeabilization was repeated (for a total of 2 times). Permeabilization solution was replaced with 100 μL/well blocking buffer and plates were incubated for 1 hour at room temperature, after which 100 μL/well of primary antibody solution was added and plates were incubated overnight at 4° C. Plates were washed with wash buffer, after which 100 μL/well of secondary antibody solution was added to the plates and incubated in the dark for 1 hr at room temperature. Plates were washed with wash buffer, followed by a wash with PBS. After completely removing PBS, plates were scanned on the Licor Odyssey Imager. Images were quantified using Licor Odyssey application software. IC50 values were determined by curve fitting using a Collaborative Drug Discovery database (www.collaborativedrug.com).

PI3Kγ = molecular target: T1, PI3Kγ (Mus musculus, UniProt Q9JHG7); assay: ELISA assay for PI3Kγ: in-cell ELISA, phosphorylation of AKT (Ser473) in RAW 264.7 cells; type: cell-based; conditions: cellular, pAKT (Ser473), C5a stimulation, read-out: IC50 p110γ
T1 construct: endogenous in cells; host or cells: RAW 264.7 (ATCC #TIB-71)
T1 sequence (Q9JHG7 whole entry): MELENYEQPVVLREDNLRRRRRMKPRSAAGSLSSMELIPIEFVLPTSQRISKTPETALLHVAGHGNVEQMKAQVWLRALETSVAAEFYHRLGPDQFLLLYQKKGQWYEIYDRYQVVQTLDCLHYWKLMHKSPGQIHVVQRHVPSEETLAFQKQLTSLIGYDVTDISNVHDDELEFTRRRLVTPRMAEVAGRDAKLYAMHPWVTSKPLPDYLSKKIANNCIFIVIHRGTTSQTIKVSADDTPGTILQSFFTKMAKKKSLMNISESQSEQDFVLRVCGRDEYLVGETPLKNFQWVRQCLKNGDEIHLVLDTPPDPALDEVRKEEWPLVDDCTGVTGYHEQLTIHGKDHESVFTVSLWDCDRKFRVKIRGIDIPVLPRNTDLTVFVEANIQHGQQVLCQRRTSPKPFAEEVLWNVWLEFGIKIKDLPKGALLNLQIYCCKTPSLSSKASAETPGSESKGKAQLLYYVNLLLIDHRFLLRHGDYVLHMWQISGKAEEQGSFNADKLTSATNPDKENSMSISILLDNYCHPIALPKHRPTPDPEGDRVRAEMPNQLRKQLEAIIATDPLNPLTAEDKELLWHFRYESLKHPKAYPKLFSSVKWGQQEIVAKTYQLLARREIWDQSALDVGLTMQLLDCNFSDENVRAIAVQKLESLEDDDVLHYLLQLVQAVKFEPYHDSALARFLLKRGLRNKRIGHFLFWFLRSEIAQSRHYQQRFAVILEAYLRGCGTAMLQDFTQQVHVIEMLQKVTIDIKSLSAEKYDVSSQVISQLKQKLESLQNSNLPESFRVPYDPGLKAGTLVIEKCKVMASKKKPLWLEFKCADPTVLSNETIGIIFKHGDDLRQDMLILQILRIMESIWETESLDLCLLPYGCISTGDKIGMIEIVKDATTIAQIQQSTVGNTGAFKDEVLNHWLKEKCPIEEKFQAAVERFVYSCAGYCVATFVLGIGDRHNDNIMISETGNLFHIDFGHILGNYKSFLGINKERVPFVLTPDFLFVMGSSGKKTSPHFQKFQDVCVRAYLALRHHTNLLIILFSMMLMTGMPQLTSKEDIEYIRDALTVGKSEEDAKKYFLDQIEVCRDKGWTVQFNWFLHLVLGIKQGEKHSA
Protocol: PI3K gamma (PI3Kγ) activity was determined by measuring the phosphorylation of AKT (Ser473) using an in-cell ELISA assay. RAW 264.7 (mouse macrophage) cells were obtained from ATCC (ATCC #TIB-71). Growth medium was DMEM (CellGro #CV-10-013-CV) supplemented with 10% fetal bovine serum, 100 IU/mL penicillin, 100 μg/mL streptomycin, and 1×MEM non-essential amino acids. Phosphate buffered saline (PBS) contained 2.7 M NaCl, 54 mM KCl, 86 mM […] (dibasic, anhydrous), and 28 mM […] (monobasic, anhydrous) at pH 7.2. Stimulation mixture (10×) was 500 ng/mL recombinant human complement component C5a (R&D systems #2037-C5-025) diluted in serum-free DMEM medium (CellGro #CV-10-013-CV). Compounds for testing were dissolved and serially diluted in 100% DMSO (total of 10 concentrations), then diluted in serum-free DMEM to 2× final assay concentration. Fixative solution (2×) was 8% formaldehyde (Amresco #M134) diluted in PBS. Permeabilization solution was PBS supplemented with 0.10% Triton X-100. Blocking buffer was obtained from LiCor (LiCor #927-40000). Wash buffer was PBS supplemented with 0.1% Tween-20. Primary antibody solution was rabbit anti-pAKT^S473 monoclonal antibody (Cell Signaling #4060) and mouse anti-total S6 (Santa Cruz #74459) diluted 1:500 and 1:2000, respectively, in the blocking buffer. Secondary antibody solution was IRDye 800CW-conjugated goat anti-rabbit IgG (LiCor #926-32211) and IRDye 680LT-conjugated goat anti-mouse IgG (LiCor #926-68020) diluted 1:1000 and 1:2000, respectively, in the blocking buffer.
RAW 264.7 cells were subcultured in growth medium and seeded into flat, clear bottom, 96-well plates (Corning #3904) at 70000 cells/well, then incubated overnight in a 37° C., 5% CO2 incubator. Growth medium in plates was replaced with 100 μL/well serum-free DMEM and incubated overnight in a 37° C., 5% CO2 incubator. Fresh serum-free DMEM (50 μL/well) was added to plates. Compound treatment was performed by adding 50 μL/well of 2× compound mixture to plates and incubating for 2 hrs at 37° C., 5% CO2, after which 11 μL/well of 10× stimulation mixture was added and plates were incubated for 3 min at 37° C., 5% CO2. Fixation was performed by adding 110 μL/well of 2× fixative solution to plates and incubating for 20 min at room temperature. Permeabilization was performed by replacing fixation solution with 150 μL/well permeabilization solution and incubating for 10 min at room temperature. Permeabilization was repeated (for a total of 2 times). Permeabilization solution was replaced with 100 μL/well blocking buffer and plates were incubated for 1 hr at room temperature, after which 100 μL/well of primary antibody solution was added and plates were incubated overnight at 4° C. Plates were washed with wash buffer, after which 100 μL/well of secondary antibody solution was added to the plates and incubated in the dark for 1 hr at room temperature. Plates were washed with wash buffer, followed by awash with PBS. After completely removing PBS, plates were scanned on the Licor Odyssey Imager. Images were quantified using Licor Odyssey application software. IC50 values were determined by curve fitting using a Collaborative Drug Discovery database (www.collaborativedrug.com).

Sequence of PI3Kα (P27986 2-724): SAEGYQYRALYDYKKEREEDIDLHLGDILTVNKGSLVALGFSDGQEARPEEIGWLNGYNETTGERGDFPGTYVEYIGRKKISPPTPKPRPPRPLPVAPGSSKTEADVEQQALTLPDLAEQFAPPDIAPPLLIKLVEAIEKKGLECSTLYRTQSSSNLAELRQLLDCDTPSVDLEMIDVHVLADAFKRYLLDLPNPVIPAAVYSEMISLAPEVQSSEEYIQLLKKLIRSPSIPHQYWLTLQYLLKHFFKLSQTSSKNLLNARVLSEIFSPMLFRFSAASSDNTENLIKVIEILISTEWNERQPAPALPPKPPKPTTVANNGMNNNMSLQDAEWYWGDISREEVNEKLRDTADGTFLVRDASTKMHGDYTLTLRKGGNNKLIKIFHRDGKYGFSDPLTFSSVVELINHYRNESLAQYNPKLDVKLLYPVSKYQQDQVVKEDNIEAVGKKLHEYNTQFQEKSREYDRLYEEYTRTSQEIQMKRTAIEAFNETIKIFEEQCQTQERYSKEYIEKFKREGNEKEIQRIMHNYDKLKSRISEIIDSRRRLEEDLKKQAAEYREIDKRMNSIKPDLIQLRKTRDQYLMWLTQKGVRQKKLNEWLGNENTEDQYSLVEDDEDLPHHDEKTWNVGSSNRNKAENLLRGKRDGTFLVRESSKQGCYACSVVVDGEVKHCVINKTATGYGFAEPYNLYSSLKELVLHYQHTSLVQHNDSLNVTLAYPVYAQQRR
Sequence of PI3Kα (P42336 whole entry): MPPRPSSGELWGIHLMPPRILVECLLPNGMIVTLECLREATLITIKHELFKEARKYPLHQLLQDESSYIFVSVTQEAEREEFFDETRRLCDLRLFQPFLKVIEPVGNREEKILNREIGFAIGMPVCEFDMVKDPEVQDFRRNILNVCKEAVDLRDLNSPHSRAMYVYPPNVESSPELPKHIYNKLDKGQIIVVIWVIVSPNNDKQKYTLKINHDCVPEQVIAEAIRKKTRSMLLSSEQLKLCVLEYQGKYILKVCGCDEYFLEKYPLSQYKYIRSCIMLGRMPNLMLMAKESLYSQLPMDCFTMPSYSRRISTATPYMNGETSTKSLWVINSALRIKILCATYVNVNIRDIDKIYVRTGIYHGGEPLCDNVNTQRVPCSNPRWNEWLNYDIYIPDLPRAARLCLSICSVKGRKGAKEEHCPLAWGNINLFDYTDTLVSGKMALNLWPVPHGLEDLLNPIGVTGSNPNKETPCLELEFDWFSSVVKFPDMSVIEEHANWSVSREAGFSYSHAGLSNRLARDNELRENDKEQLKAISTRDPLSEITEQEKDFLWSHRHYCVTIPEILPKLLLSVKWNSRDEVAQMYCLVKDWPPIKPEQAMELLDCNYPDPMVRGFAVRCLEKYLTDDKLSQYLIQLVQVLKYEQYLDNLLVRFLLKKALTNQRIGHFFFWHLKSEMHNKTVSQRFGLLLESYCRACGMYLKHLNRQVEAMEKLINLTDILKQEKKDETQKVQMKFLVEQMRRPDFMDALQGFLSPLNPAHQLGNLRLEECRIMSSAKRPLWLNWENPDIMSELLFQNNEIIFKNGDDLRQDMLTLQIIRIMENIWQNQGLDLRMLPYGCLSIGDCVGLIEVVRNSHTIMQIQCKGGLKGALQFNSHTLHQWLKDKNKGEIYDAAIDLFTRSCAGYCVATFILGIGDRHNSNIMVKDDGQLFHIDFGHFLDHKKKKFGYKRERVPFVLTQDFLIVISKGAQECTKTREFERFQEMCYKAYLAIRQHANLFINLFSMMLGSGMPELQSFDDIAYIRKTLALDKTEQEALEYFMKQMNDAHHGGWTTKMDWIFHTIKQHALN

| Compound | IC50 (PI3Kα) [µM] | IC50 (PI3Kγ) [µM] |
| --- | --- | --- |
| COc1ccc(-c2ccccc2CC(C)(C)Nc2nc(N3CCOCC3)nc(-n3c(C(F)F)nc4ccccc43)n2)cc1 [Compound A67, 4-(2-(difluoromethyl)-1H-benzo[d]imidazol-1-yl)-N-(1-(4′-methoxybiphenyl-2-yl)-2-methylpropan-2-yl)-6-morpholino-1,3,5-triazin-2-amine] | > 0.5 | > 0.5 |
| CC(C)(Cc1ccccc1C1CCNCC1)Nc1nc(N2CCOCC2)nc(-n2c(C(F)F)nc3ccccc32)n1 [Compound A68, 4-(2-(difluoromethyl)-1H-benzo[d]imidazol-1-yl)-N-(2-methyl-1-(2-(piperidin-4-yl)phenyl)propan-2-yl)-6-morpholino-1,3,5-triazin-2-amine] | > 0.5 | 0.2 to 0.5 |
| CCN1CCC(c2ccccc2CC(C)(C)Nc2nc(N3CCOCC3)nc(-n3c(C(F)F)nc4ccccc43)n2)CC1 [Compound A70, 4-(2-(difluoromethyl)-1H-benzo[d]imidazol-1-yl)-N-(1-(2-(1-ethylpiperidin-4-yl)phenyl)-2-methylpropan-2-yl)-6-morpholino-1,3,5-triazin-2-amine] | > 0.5 | > 0.5 |
| CC(C)N1CCC(c2ccccc2CC(C)(C)Nc2nc(N3CCOCC3)nc(-n3c(C(F)F)nc4ccccc43)n2)CC1 [Compound A71, 4-(2-(difluoromethyl)-1H-benzo[d]imidazol-1-yl)-N-(1-(2-(1-isopropylpiperidin-4-yl)phenyl)-2-methylpropan-2-yl)-6-morpholino-1,3,5-triazin-2-amine] | > 0.5 | > 0.5 |
| CC(=O)N1CCC(c2ccccc2CC(C)(C)Nc2nc(N3CCOCC3)nc(-n3c(C(F)F)nc4ccccc43)n2)CC1 [Compound A72, 4-(2-(difluoromethyl)-1H-benzo[d]imidazol-1-yl)-N-(2-methyl-1-(2-(1-acetylpiperidin-4-yl)phenyl)propan-2-yl)-6-morpholino-1,3,5-triazin-2-amine] | 0.2 to 0.5 | ≤ 0.1 |
| CC(C)(Cc1ccccc1C1CCN(S(C)(=O)=O)CC1)Nc1nc(N2CCOCC2)nc(-n2c(C(F)F)nc3ccccc32)n1 [Compound A73, 4-(2-(difluoromethyl)-1H-benzo[d]imidazol-1-yl)-N-(2-methyl-1-(2-(1-(methylsulfonyl)piperidin-4-yl)phenyl)propan-2-yl)-6-morpholino-1,3,5-triazin-2-amine] | 0.2 to 0.5 | ≤ 0.1 |
| CC(C)(Cc1ccccc1C1CCNC1)Nc1nc(N2CCOCC2)nc(-n2c(C(F)F)nc3ccccc32)n1 (stereo not drawn) [Compound A74, 4-(2-(difluoromethyl)-1H-benzo[d]imidazol-1-yl)-N-(2-methyl-1-(2-(pyrrolidin-3-yl)phenyl)propan-2-yl)-6-morpholino-1,3,5-triazin-2-amine] | > 0.5 | 0.2 to 0.5 |
| CN1CCC(c2ccccc2CC(C)(C)Nc2nc(N3CCOCC3)nc(-n3c(C(F)F)nc4ccccc43)n2)C1 (stereo not drawn) [Compound A75, 4-(2-(difluoromethyl)-1H-benzo[d]imidazol-1-yl)-N-(2-methyl-1-(2-(1-methylpyrrolidin-3-yl)phenyl)propan-2-yl)-6-morpholino-1,3,5-triazin-2-amine] | > 0.5 | 0.1 to 0.2 |
| CN(C)CCCc1ccccc1CC(C)(C)Nc1nc(N2CCOCC2)nc(-n2c(C(F)F)nc3ccccc32)n1 [Compound A76, 4-(2-(difluoromethyl)-1H-benzo[d]imidazol-1-yl)-N-(1-(2-(3-(dimethylamino)propyl)phenyl)-2-methylpropan-2-yl)-6-morpholino-1,3,5-triazin-2-amine] | > 0.5 | > 0.5 |
